# Experimental data published in article PMC9502374, “Enzymatic and Molecular Characterization of Anti-Leishmania Molecules That Differently Target Leishmania and Mammalian eIF4A Proteins, LieIF4A and eIF4AMus” (Molecules, 2022).
# Several values for one entry are separate records, joined by “and”; a condition that tells them apart may be missing. Equal values may be shown once. Read-outs that look alike come from different tables or passages of the source.
# Key:
# [1] = tested on: L. infantum promastigotes (LV50); test: MTT viability assay on promastigotes; type: cell-based, Leishmania infantum; details: for IC50: Leishmania infantum, stationary phase promastigotes, 24 h
# Experimental: The MON1 L. infantum laboratory strain LV50 originating from a visceral leishmaniasis case (Laboratory of Molecular Epidemiology and Experimental Pathology, Institut Pasteur de Tunis) was used to test the effect of the chemical compounds. Promastigote cultures were inoculated in RPMI-1640 media supplemented with 2 mM L-glutamine, 100 U/mL penicillin, 100 U/mL streptomycin and 10% (v/v) heat-inactivated fetal bovine serum at 22 °C. Promastigotes were collected at the beginning of the stationary phase (day 5), counted, centrifuged and seeded at 10^6/mL in 10 mL of complete media.
# The effect of the chemical compounds on the viability of L. infantum promastigotes was evaluated by a colorimetric MTT (3-(4,5-dimethylthiazol-2yl)-2,5-diphenyl tetrazolium bromide) 96-well plate assay as previously described in [7]. This test consisted of a reduction of tetrazolium salt to a […] crystal (blue formazan) by the succinate dehydrogenase activity of mitochondria in living cells, which can be quantified by spectrophotometry. Briefly, 90 μL of LV50 promastigotes harvested from the stationary growth phase of 10^6/mL culture were added to a 96-well culture plate with various concentrations of the selected compounds to obtain a final volume of 100 µL, compound concentrations of 1.5–100 μM, and a final concentration of 1% DMSO per well. Plates were incubated at 25 °C for 24 h.
# (§1) Mock-treated THP-1-derived macrophages and promastigotes (1% DMSO) were used as controls. After 24 h of incubation, MTT solution was added at 1 mg/mL to each well and incubated at the appropriate cell temperatures for 4 h. Then, 150 μL of DMSO was added to each well to dissolve the blue formazan, and the optical density (OD) was measured at 560 nm with a microplate reader (MULTISCAN, Labsystems, Thermo Fisher Scientific, Ratastie, Finland).
# The promastigotes and THP-1-derived macrophage viabilities were expressed as the percentage of the viable promastigotes or cells in treated conditions relative to the 1% DMSO cultures, as previously described in [7]. […]
# [2] = MTT cytotoxicity assay on macrophages; type: cell-based, human; details: human
# Experimental: (§2) The human myelomonocytic cell line, THP-1, was ordered from the American Type Culture Collection (ATCC, TIB-202). Cells were maintained in RPMI 1640/Glutamax-I media (Gibco BRL, Bleiswijk, The Netherlands) supplemented with 10% heat-inactivated fetal calf serum (Gibco, Bleiswijk, The Netherlands) plus penicillin G (100 U/mL) and streptomycin ([…]). THP-1 cells were differentiated to macrophages after their treatment with 20 ng/mL phorbol […] (PMA) (Sigma, St. Louis, MO, USA) for 48 h at 37 °C, 5% CO2. The viability of THP-1 mature macrophage-like cells was determined to be >97% by the Trypan blue dye exclusion assay.
# (§3) For the cytotoxicity assay, we used the THP-1-derived macrophages (50,000 cells/well) seeded in 96-well plates and treated with serial concentrations of compounds at the same conditions as for the promastigotes for 24 h.
# as §1
# (§4) The promastigotes and THP-1-derived macrophage viabilities were expressed as the percentage of the viable promastigotes or cells in treated conditions relative to the 1% DMSO cultures, as previously described in [7]. The half maximal inhibitory concentration (IC50) and 50% cytotoxic concentrations (CC50) values were calculated for all the tested compounds by interpolation.
# [3] = tested on: THP-1-derived macrophages; test: MTT cytotoxicity assay on macrophages; type: cell-based, human; details: MTT, 24 h; read-out: Uninfected THP-1-Derived Macrophages CC50
# Experimental: as §2, §3, §1, §4
# LieIF4A [4] = target: T1, LieIF4A (Leishmania infantum, UniProt A4HRK0); details: cited from earlier work; for Ki: ATPase kinetics, calculated from data in ref 7; for IC50: read-out: LieIF4A ATPase assay IC50
# T1 construct: His6; made in house; host or cells: Escherichia coli Rosetta
# T1 sequence (A4HRK0 1-403): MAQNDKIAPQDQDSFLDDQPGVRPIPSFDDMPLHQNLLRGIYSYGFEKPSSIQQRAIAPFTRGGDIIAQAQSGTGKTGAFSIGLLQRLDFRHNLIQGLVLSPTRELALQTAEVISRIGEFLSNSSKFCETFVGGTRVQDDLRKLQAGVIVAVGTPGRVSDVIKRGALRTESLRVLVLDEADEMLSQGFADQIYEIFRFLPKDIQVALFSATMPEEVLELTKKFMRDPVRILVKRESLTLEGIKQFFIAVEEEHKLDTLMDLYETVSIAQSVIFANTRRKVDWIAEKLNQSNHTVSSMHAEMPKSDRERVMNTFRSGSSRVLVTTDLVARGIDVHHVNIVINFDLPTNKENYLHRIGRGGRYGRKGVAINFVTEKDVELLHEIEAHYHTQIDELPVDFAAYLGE
# eIF4AMus [5] = target: T2, eIF4AMus (Mus musculus, UniProt P60843); set-up: method as in PMID 29346371; details: ATPase kinetics, calculated from data in ref 7, cited from earlier work
# T2 construct: His6; made in house; host or cells: Escherichia coli Rosetta
# T2 sequence (P60843 whole entry): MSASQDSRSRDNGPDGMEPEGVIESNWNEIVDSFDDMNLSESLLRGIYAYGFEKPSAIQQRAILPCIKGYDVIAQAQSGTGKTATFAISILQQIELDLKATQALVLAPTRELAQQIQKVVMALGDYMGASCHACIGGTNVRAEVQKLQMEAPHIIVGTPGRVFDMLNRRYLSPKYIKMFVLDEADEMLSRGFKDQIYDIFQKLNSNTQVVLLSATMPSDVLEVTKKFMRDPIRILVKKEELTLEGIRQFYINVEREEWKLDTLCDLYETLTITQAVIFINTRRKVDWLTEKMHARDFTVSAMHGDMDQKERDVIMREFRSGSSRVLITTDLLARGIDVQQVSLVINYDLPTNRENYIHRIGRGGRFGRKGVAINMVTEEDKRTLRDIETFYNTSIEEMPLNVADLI
# [6] = tested on: L. infantum promastigotes (LV50); set-up: method as in PMID 29346371; details: cited from earlier work
# LieIF4A [7] = target: T1, LieIF4A; test: RNA-dependent ATPase assay (Malachite green), LieIF4A; type: biochemical
# Experimental: (§5) A colorimetric assay was used to measure the phosphate released during ATP hydrolysis based on Malachite green, as previously described in [8, 9]. Reactions were performed at 37 °C in 96 well microtiter plates in a final volume of 50 μL. The reaction buffer contained 50 mM potassium acetate, 20 mM MES pH 6, 2 mM dithiothreitol (DTT), 0.1 mg/mL BSA and various concentrations of whole yeast RNA (Type XI-C, Sigma-Aldrich, St. Louis, MO, USA). 5 mM and 1 mM magnesium acetate were added to the LieIF4A and eIF4AMus reactions, respectively. Reactions were initiated by adding ATP; when not noted otherwise, the ATP concentration used was 1 mM. Reactions were stopped after various times with ethylenediaminetetraacetic acid (EDTA, final concentration 60 mM). The absorption at 630 nm was converted to phosphate concentration by a reference curve generated from a dilution series of a known phosphate concentration (0.1 mM Pi standard; Innova Biosciences, Cambridge, UK). Reaction velocities were determined by a linear regression fit of the phosphate generated against time. Only the initial linear phases of the curves were used. Velocities were determined for three independent experiments for each reaction condition. The Michaelis –Menten (Km) and the inhibition kinetics (Ki) constants were obtained by nonlinear regression using GraphPad Prism 8 (GraphPad Software).
# eIF4AMus [8] = target: T2, eIF4AMus; test: RNA-dependent ATPase assay (Malachite green), eIF4AMus; type: biochemical
# Experimental: as §5
# [9] = tested on: intramacrophage amastigotes of L. donovani (LV9); set-up: method as in PMID 16949702; details: cited from earlier work
# [10] = tested on: L. infantum promastigotes; set-up: method as in PMID 21417924; details: cited from earlier work
# [11] = tested on: THP-1-derived macrophages; details: cited from earlier work
# [12] = L. infantum, read-out: Anti-leishmanial activity IC50
compound,measurement,setting,value
CC(C)CCC[C@@H](C)[C@H]1CC[C@H]2[C@@H]3CC(=O)[C@H]4C[C@@H](O)CC[C@]4(C)[C@H]3CC[C@]12C [6-ketocholestanol],IC50,[1],37 ± 6.6 µM
same,CC50 at 24 h,"[2]; THP-1-derived macrophages (PMA-differentiated, uninfected), MTT, 24 h, read-out: Uninfected THP-1-Derived Macrophages CC50",77 µM
same,CC50,[3],76.9 ± 2.1 µM
same,Ki,LieIF4A [4],316 ± 80.7 µM
same,IC50,LieIF4A [4],> 1000 µM
same,Ki,eIF4AMus [5],485 ± 94.5 µM
same,IC50,[6]; [12],39.1 µM
CC(C)CCC[C@@H](C)[C@H]1CC[C@H]2[C@@H]3CC=C4C[C@@H](O)CC[C@]4(C)[C@H]3CC[C@]12C [Cholesterol],Effect on ATPase kinetics,LieIF4A [7]; 300 µM compound,no effect
same,Effect on ATPase kinetics,eIF4AMus [8]; 300 µM compound,no effect
same,Effect on promastigotes viability,[1]; 24 h exposure,no effect
7-α/β-aminocholesterol,IC50,[9],1300 nM
Nc1ncnc2c1ncn2[C@@H]1O[C@H](COP(=O)(O)OP(=O)(O)OP(=O)(O)O)[C@@H](O)[C@H]1O [ATP],Km,"LieIF4A [4]; saturating total yeast RNA, control DMSO, no test compound, read-out: Km (ATP hydrolysis)",150 ± 20 µM
COc1ccc([C@@]23Oc4cc(OC)cc(OC)c4[C@]2(O)[C@H](O)[C@H](C(=O)N(C)C)[C@H]3c2ccccc2)cc1 [Rocaglamide A],Increase of ATPase activity,"LieIF4A [7]; 50 µM rocaglamide A vs no compound, 1 ng/µL yRNA",1.7 fold
same,Relative activity (to maximum velocity of eIF4AMus without rocaglamide A),"LieIF4A [7]; 50 µM rocaglamide A, 1 ng/µL yRNA",0.80 ± 0.07
same,ATPase activity with compound relative to saturating RNA without compound (less),"LieIF4A [7]; 50 µM rocaglamide A, 1 ng/µL yRNA vs 340 ng/µL yRNA",2.3 fold
same,V (ATPase reaction velocity),"LieIF4A [7]; 50 µM rocaglamide A, 1 ng/µL yRNA, 1 mM ATP, 820 nM protein, 10% DMSO",0.77 ± 0.07 µM/min
same,Increase of ATPase activity,"eIF4AMus [8]; 50 µM rocaglamide A vs no compound, 55 ng/µL yRNA",6.2 fold
same,Relative activity (to maximum velocity of eIF4AMus without rocaglamide A),"eIF4AMus [8]; 50 µM rocaglamide A, 55 ng/µL yRNA",2.65 ± 0.03
same,ATPase activity with compound relative to saturating RNA without compound (more),"eIF4AMus [8]; 50 µM rocaglamide A, 55 ng/µL yRNA vs 340 ng/µL yRNA",~2.7 fold
same,V (ATPase reaction velocity),"eIF4AMus [8]; 50 µM rocaglamide A, 55 ng/µL yRNA, 1 mM ATP, 1200 nM protein, 10% DMSO",2.55 ± 0.03 µM/min
same,EC50,[10],16.5 µM
CC(C)CCC[C@@H](C)[C@H]1CC[C@H]2[C@@H]3[C@@H](CN)C=C4C[C@@H](O)CC[C@]4(C)[C@H]3CC[C@]12C [7-β-aminomethylcholesterol],IC50,[9],1300 nM
CC(C)CCC[C@@H](C)[C@H]1CC[C@H]2[C@@H]3[C@H](N)C=C4C[C@@H](O)CC[C@]4(C)[C@H]3CC[C@]12C [7-α-aminocholesterol],Higher affinity (Ki) for LieIF4A than for eIF4AMus,LieIF4A [7]; Ki eIF4AMus / Ki LieIF4A,~ 9.4 fold
same,Ki,"LieIF4A [7]; Ki, ATPase kinetics, saturating yRNA",8.6 µM and 8.57 µM
same,Ki,"eIF4AMus [8]; ATPase kinetics, saturating yRNA",80.5 µM
same,IC50,[1],2.29 ± 0.4 µM
same,CC50 at 24 h,[2]; Uninfected THP-1-Derived Macrophages CC50,17.5 ± 3.4 µM
same,IC50,[9],1310 nM
CC(C)CCC[C@@H](C)[C@H]1CC[C@H]2[C@@H]3C[C@H](N)[C@H]4C[C@@H](O)CC[C@]4(C)[C@H]3CC[C@]12C [6-α-aminocholestanol],Ki,LieIF4A [4],19.5 ± 3.27 µM
same,IC50,LieIF4A [4],160 µM
same,Ki,eIF4AMus [5]; read-out: Ki,20.2 µM
same,IC50,[6]; [12],3.6 µM
same,IC50,"[6]; MTT, measured using data in ref 7, read-out: Promastigotes LV50 IC50",3.64 ± 0.1 µM
same,CC50,[11],35.2 ± 1.3 µM
